In ChEMBL document CHEMBL4616717, “Discovery of GNE-149 as a Full Antagonist and Efficient Degrader of Estrogen Receptor alpha for ER+ Breast Cancer” (ACS Med Chem Lett, 2020):
The source made the active and inactive calls. The rule behind the calls is not given here.

Tests used:
Estrogen receptor [1] = target: T1, Estrogen receptor (Homo sapiens, UniProt P03372); assay: Induction of ERalpha degradation in human MCF7 cells after 4 hrs by FITC/Hoechst staining based immunofluorescence imaging analysis; type: cell-based
T1 sequence (P03372 whole entry): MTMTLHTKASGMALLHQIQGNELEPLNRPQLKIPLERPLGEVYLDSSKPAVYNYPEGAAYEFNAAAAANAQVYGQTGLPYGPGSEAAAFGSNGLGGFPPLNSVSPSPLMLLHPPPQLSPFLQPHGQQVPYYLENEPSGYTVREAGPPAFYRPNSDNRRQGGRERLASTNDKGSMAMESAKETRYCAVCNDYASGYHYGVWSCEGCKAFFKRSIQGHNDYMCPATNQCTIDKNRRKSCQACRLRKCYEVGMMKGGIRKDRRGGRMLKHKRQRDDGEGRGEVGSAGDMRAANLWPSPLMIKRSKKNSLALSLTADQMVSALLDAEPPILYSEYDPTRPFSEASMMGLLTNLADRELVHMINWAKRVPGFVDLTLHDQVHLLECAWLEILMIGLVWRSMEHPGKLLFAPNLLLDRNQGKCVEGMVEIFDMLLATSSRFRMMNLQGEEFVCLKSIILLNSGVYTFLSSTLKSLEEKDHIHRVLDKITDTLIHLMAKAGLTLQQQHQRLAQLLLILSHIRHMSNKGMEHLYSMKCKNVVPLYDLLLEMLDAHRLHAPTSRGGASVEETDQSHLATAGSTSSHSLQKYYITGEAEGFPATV

MCF7 [2] = assay: Antiproliferative activity against human MCF7 cells assessed as reduction in cell viability after 72 hrs by Celltiter-Glo assay; type: functional, cell-based; details: MCF7, 72 h
[3] = Clearance in rat; type: ADME; details: in vivo
[4] = Oral bioavailability in dog; details: in vivo
[5] = Oral bioavailability in cynomolgus monkey; details: in vivo
T47D = assay: Antiproliferative activity against human T47D cells assessed as reduction in cell viability; type: functional, cell-based
[6] = Clearance in cynomolgus monkey; type: ADME, Macaca fascicularis; details: in vivo
Estrogen receptor [7] = target: T1, Estrogen receptor; assay: Agonist activity at ERalpha in human Ishikawa cells after 72 hrs by alkaline phosphatase assay; type: cell-based
[8] = Clearance in dog; type: ADME, Canis lupus familiaris; details: in vivo
MCF7 [9] = assay: Antitumor activity against human MCF7 cells harboring ER Y537S mutant xenografted in po dosed CRL:NU-Foxn1 mouse assessed as tumor regression administered qd for 21 days in presence of 17-beta estradiol pellets and measured twice per week by caliper method; type: functional, organism-based
MCF7 [10] = assay: Antitumor activity against human MCF7 cells expressing wild-type ER xenografted in po dosed CRL:NU-Foxn1 mouse administered qd for 28 days in presence of 17-beta-estradiol pellets and measured twice per week by caliper method; type: functional, organism-based
MCF7 [11] = assay: Antitumor activity against human MCF7 cells harboring ER Y537S mutant xenografted in CRL:NU-Foxn1 mouse assessed as tumor regression at 1 to 30 mg/kg, po qd for 21 days in presence of 17-beta estradiol pellets and measured twice per week by caliper method; type: functional, organism-based
[12] = target: T2, Estrogen receptor (Rattus norvegicus) (UniProt P06211); assay: In vivo antagonist activity at ERalpha in CRL:CD(SD) rat assessed as inhibition of estradiol-induced increase in uterine wet weight at 10 mg/kg, po administered as MCT suspension for 3 days and measured at 4 hrs post last dose on day 4; type: functional, organism-based
T2 sequence (whole entry): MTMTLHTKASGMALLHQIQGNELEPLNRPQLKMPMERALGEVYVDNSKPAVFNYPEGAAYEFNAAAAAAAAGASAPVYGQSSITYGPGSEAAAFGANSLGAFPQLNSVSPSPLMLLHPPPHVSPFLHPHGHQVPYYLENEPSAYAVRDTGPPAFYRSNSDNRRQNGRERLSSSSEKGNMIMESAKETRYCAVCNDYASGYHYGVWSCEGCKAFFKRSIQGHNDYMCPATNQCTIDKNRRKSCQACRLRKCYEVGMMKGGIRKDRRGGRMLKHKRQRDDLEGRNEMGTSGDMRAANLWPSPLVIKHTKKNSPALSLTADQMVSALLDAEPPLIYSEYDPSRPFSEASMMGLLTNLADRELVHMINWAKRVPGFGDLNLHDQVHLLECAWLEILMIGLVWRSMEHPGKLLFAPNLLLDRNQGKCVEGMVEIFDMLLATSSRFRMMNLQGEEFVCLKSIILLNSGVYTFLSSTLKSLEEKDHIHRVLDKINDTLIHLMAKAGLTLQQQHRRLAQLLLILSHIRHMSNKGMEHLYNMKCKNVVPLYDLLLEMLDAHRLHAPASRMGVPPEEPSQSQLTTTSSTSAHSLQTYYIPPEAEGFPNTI

[13] = Oral bioavailability in rat; details: in vivo

| IC50 (Estrogen receptor [1]) [nM] | IC50 (MCF7 [2]) [nM] | SMILES | also measured |
| --- | --- | --- | --- |
| 0.15 | 0.84 | C=CCN1CC(Oc2cc(F)c([C@@H]3c4[nH]c5ccccc5c4C[C@@H](C)N3CC(C)(C)F)c(F)c2)C1 |  |
|  | 1.7 | C[C@@H]1Cc2c([nH]c3ccccc23)[C@@H](c2c(F)cc(OC[C@H](C)N3CC[C@@H](CF)C3)cc2F)N1CC(C)(C)F |  |
| 0.52 | 5.6 | C[C@@H]1Cc2c([nH]c3ccccc23)[C@@H](c2c(F)cc(OC3CN(CC4(CF)CC4)C3)cc2F)N1CC(C)(C)F |  |
| 0.083 | 0.82 | C#CCN1CC(Oc2cc(F)c([C@@H]3c4[nH]c5ccccc5c4C[C@@H](C)N3CC(C)(C)F)c(F)c2)C1 |  |
| 0.55 | 6.4 | C[C@@H]1Cc2c([nH]c3ccccc23)[C@@H](c2c(F)cc(OC3CN(C[C@H]4C[C@@H]4F)C3)cc2F)N1CC(C)(C)F |  |
|  | 1.5 | C[C@@H]1Cc2c([nH]c3ccccc23)[C@@H](c2c(F)cc(OCCN3CC[C@@H](CF)C3)cc2F)N1CC(C)(C)F |  |
| 0.39 | 8.5 | C[C@@H]1Cc2c([nH]c3ccccc23)[C@@H](c2c(F)cc(OC3CN(CCCCF)C3)cc2F)N1CC(C)(C)F |  |
| 0.38 | 2.7 | C[C@@H]1Cc2c([nH]c3ccccc23)[C@@H](c2c(F)cc(OCCN3CC(F)(CF)C3)cc2F)N1CC(C)(C)F |  |
|  | 3 | C[C@@H]1Cc2c([nH]c3ccccc23)[C@@H](c2c(F)cc(OC3CN(CCCCl)C3)cc2F)N1CC(C)(C)F |  |
| 0.18 | 1.3 | C[C@@H]1Cc2c([nH]c3ccccc23)[C@@H](c2c(F)cc(OC3CN(CCF)C3)cc2F)N1CC(C)(C)F |  |
|  | 2.3 | C[C@@H]1Cc2c([nH]c3ccccc23)[C@@H](c2c(F)cc(OCCN3CC(C(F)F)C3)cc2F)N1CC(C)(C)F |  |
|  | 1.6 | C[C@@H]1Cc2c([nH]c3ccccc23)[C@@H](c2c(F)cc(OCCN3CC(CF)C3)cc2F)N1CC(C)(C)F |  |
| 0.19 | 0.9 | CC1CN(CCOc2cc(F)c([C@@H]3c4[nH]c5ccccc5c4C[C@@H](C)N3CC(C)(C)F)c(F)c2)C1 |  |
| 0.56 | 1.8 | C[C@@H]1Cc2c([nH]c3ccccc23)[C@@H](c2c(F)cc(OC3CN(C[C@H]4C[C@H]4F)C3)cc2F)N1CC(C)(C)F |  |
|  | 44 | CC/C(=C(/c1ccc(/C=C/C(=O)O)cc1)c1ccc2[nH]ncc2c1)c1ccc(F)cc1Cl [BRILANESTRANT] | IC50 (T47D): 27 nM |
|  | 1.5 | CCCN1CC(Oc2cc(F)c([C@@H]3c4[nH]c5ccccc5c4C[C@@H](C)N3CC(C)(C)F)c(F)c2)C1 |  |
|  | 0.66 | C[C@@H]1Cc2c([nH]c3ccccc23)[C@@H](c2c(F)cc(OC3CN(CCCF)C3)cc2F)N1CC(C)(C)F | Activity (MCF7 [9]): Dose-dependent effect; Activity (MCF7 [10]): Dose-dependent effect; clearance [3]: 19 mL/min/kg; Activity (MCF7 [11]): Active; bioavailability [4]: 49%; bioavailability [5]: 28%; IC50 (T47D): 0.69 nM; clearance [6]: 13 mL/min/kg; Activity (Estrogen receptor [7]): Not Active; clearance [8]: 8 mL/min/kg; inhibition [12]: Active; bioavailability [13]: 31% |

| SMILES | IC50 (Estrogen receptor [1]) [nM] | IC50 (MCF7 [2]) [nM] | also measured |
| --- | --- | --- | --- |
| CC1=C(c2cccc(O)c2)[C@H](c2ccc(OCCN3CC(CF)C3)cc2)Oc2ccc(O)cc21 |  | 0.3 | clearance [3]: 81 mL/min/kg; bioavailability [4]: 23%; bioavailability [5]: 5%; IC50 (T47D): 0.29 nM; clearance [6]: 17 mL/min/kg; Activity (Estrogen receptor [7]): Not Active; clearance [8]: 24 mL/min/kg |
| C[C@]12CC[C@@H]3c4ccc(O)cc4C[C@@H](CCCCCCCCC[S+]([O-])CCCC(F)(F)C(F)(F)F)[C@H]3[C@@H]1CC[C@@H]2O (stereo not given in full) [FULVESTRANT] |  | 2.6 | IC50 (T47D): 3 nM; Activity (Estrogen receptor [7]): Not Active |
